Data taken from patent US20260356879A1, “CELASTROL DERIVATIVES” (Celloram Inc., priority 2022, published 2026).
Entries after “also recorded” stand apart in the source; their conditions may differ.

How the values were obtained:
GSDMD and Caspase-1 = GSDMD and Caspase-1 cleavage in THP-1 cells (western blot); format: cell-based; details: Homo sapiens; THP-1, western blot; FIG. 7C; read-out: concentration inhibiting GSDMD and Caspase-1 cleavage
Text: (§1) Pyroptosis, a pro-inflammatory form of cell death, is triggered by the activation of NLRP3 inflammasome components (GSDMD and Caspase-1), leading to the release of pro-inflammatory cytokines IL-1β and IL-18, as well as damage-associated molecular patterns (DAMPs). This process elicits a cascade of inflammatory responses, which can persist if dysregulated in affected tissues. Given the significant inhibitory potential of CLM-022 against NLRP3 inflammasome and IL-1β secretion, it was proposed that CLM-022 could effectively enhance cell viability by inhibiting pyroptosis in the context of inflammation and inflammasome activation. This example illustrates a comparative study of the abilities of CLM-022 and MCC950 to protect THP-1 cells from inflammasome-induced pyroptosis.
(§2) After LPS and Nigericin treatment, THP-1 cells were treated with either CLM-022 or MCC950 over a dosage range of 0 μM to 10 μM and cell viability was determined by impermeant live/dead staining dye and flow cytometric analysis. Additionally, NLRP3 inflammasome-induced cytotoxicity was investigated by measuring the level of LDH in the conditioned media after the CLM-022 and MCC950 treatments. Further, Western blotting of samples from the THP-1 cell viability assays was carried out to determine levels of the pyroptosis-mediating molecules, GSDMD and Caspase-1.

NLRP3 inflammasome [1] = assay: Detection of ASC complex and caspase-1 activity in THP-1 cells by Amnis imaging flow cytometry; format: cell-based, human; details: THP-1, LPS+Nigericin
Description: FIG. 3A shown images of western blot analysis of THP1 cells treated with LPS, and compound 1 (CLM-001) or compound 22, followed by Nigericin for NLRP3 inflammasome activation. The inflammasome ASC complex in the control cells (LPS+Nigericin) was compared with the treatment of compound 1 (CLM-001) (50 nM, 100 nM), compound 22 (CLM-022) (50 nM, 100 nM), and MCC950 (100 nM, 200 nM). FLICA (green) represents active caspase-1, ASC (red) complex is shown as a red speckle near the nucleus membrane, and DAPI stain for nucleus (blue) captured in the AMNIS analysis. FIG. 3B depicts the cell numbers stained as ASC+ (red) and FLICA+ (green) in the AMNIS were counted in order to compare the level of NLRP3 inflammasome activity in the cells treated as indicated (left). The ASC+ and FLICA+ cells were also plotted as a percentage of total cell count (right). […]
Amnis Imaging flow cytometry (Luminex Co.) is a high-throughput, single-cell, fluorescence-based image analysis method which can detect inflammasome by acquiring images of cellular distribution of ASC complex and active caspase-1. […] The treated cells were subjected to ASC staining and visualization of active caspase-1 using FLICA, a caspase-1 substrate exerting fluorescence upon cleavage. Finally, the ASC+/FLICA+ cells were counted as THP-1 cells with active NLRP3 inflammasome complex.

NLRP3 inflammasome [2] = assay: ASC complex formation in THP-1 cells (western blot), LPS+Nigericin; format: cell-based, human; details: THP-1, 50 nM and 100 nM, FIG. 3A
Description: This example illustrates a study of the anti-inflammatory potential of an exemplary celastrol derivative of the present disclosure (compound 22) using an NLRP3 inflammasome assay in THP-1, a human monocytic cell line, activated with LPS+Nigericin in the presence of compound 22 or the known NLRP3 inhibitor compound, MCC950 (CAS 256373-96-3), as a benchmark molecule.
Human THP-1 cells were treated with LPS+Nigericin as shown previously (FIG. 2) where increasing dose of compound 1, compound 22, or MCC950 were added as indicated.

NLRP3 inflammasome [3] = assay: IL-1β secretion in BMDMs, LPS + Nigericin; format: cell-based, mouse; details: FIG. 5A; for inhibition of IL-1β secretion: LPS + Nigericin
Description: (§3) This example illustrates a comparative study of CLM-022 and MCC950 in inhibiting NLRP3 inflammasome activity in mouse and human macrophages.
(§4) Bone marrow-derived macrophages (BMDMs) were treated with LPS (100 ng/ml) for 3 hours to induce the expression of inflammatory genes, including TNF-α, NLRP3, and pro-IL-1β. Subsequently, the BMDMs were treated with CLM-022 or MCC950 in a dose range of 0-10 μM for 30 minutes. Then, to fully activate NLRP3-dependent inflammasome activity and cytokine secretion, Nigericin (10 μM) was added to the BMDMs for an additional 30 minutes.

TNF-α secretion = TNF-α secretion in BMDMs, LPS + Nigericin; format: cell-based, mouse; details: FIG. 5B
Description: as §3, §4

NLRP3 inflammasome [4] = assay: IL-1β secretion in THP-1 macrophages, LPS + Nigericin; format: cell-based; details: human THP-1 macrophages, FIG. 5C
Description: as §3
To confirm the inhibitory effect of CLM-022 in human macrophages, THP-1 cells, a human leukemia monocytic cell line, were differentiated into macrophages using phorbol 12-myristate-13-acetate (PMA, 100 ng/ml) treatment for one day. The THP-1 macrophages were then treated with LPS (100 ng/ml) for 3 hours to induce the expression of inflammatory genes. Subsequently, the THP-1 cells were treated with CLM-022 or MCC950 in a dose range of 0-10 μM for 30 minutes. Then, to fully activate NLRP3-dependent inflammasome activity, Nigericin (10 μM) was added to the THP-1 cells for an additional 60 min.

THP-1 cells = assay: THP-1 cell viability (inflammasome-induced pyroptosis), live/dead staining and flow cytometry; format: cell-based, human; details: THP-1, LPS and Nigericin, 0 μM to 10 μM; FIG. 7A
Text: as §1, §2

For `CC1=C(O)C(=O)C=C2C1=CC=C1[C@@]2(C)CC[C@@]2(C)[C@@H]3C[C@](C)(N(C)C(=O)C(=O)N(C)C)CC[C@]3(C)CC[C@]12C` [Compound 22, N′-[(2R,4aS,6aR,6aS,14aS,14bR)-10-hydroxy-2,4a,6a,6a,9,14a-hexamethyl-11-oxo-1,3,4,5,6,13,14,14b-octahydropicen-2-yl]-N,N,N′-trimethyl-oxamide], the minimal effective concentration (GSDMD and Caspase-1) was at most 0.1 µM, the minimal effective concentration (NLRP3 inflammasome [1]; Homo sapiens, FIG. 3C, read-out: concentration at which a strong inhibitory function was observed (as low as)) was at most 0.025 µM and the “inhibition of cellular ASC+FLICA+ specks / inflammasome complex” value (NLRP3 inflammasome [1]; FIG. 3B) was “strong inhibitory effect; also recorded: inhibited NLRP3 inflammasome activity in THP1 and the cellular inflammasome complex as visualized by Amnis analysis”. The ASC complex formation (NLRP3 inflammasome [2]) was “strongly inhibited this ASC complex formation with an inhibitory capacity that was stronger than that observed for celastrol (compound 1) and MCC950”, the “inhibition of IL-1β secretion” value (NLRP3 inflammasome [3]) was “outperforms the benchmark inflammasome inhibitor compound, MCC950, in inhibiting IL-1β secretion (but not TNF-α secretion)” and the “inhibition of IL-1β secretion” value (NLRP3 inflammasome [3]; listed as CLM-022) was “significant inhibition of IL-1β secretion”. For the same molecule, the IC50 (NLRP3 inflammasome [3]; Mus musculus, BMDM, LPS (100 ng/ml) + Nigericin (10 μM), 0-10 μM, read-out: IC50 for inhibition of IL-1β secretion (normalized)) was 9 nM, the “suppression of TNF-α secretion” value (TNF-α secretion) was “neither CLM-022 nor MCC950 suppressed TNF-α secretion” and the IC50 (NLRP3 inflammasome [4]; LPS (100 ng/ml) + Nigericin (10 μM), 0-10 μM, read-out: IC50 for inhibition of IL-1β secretion) was 159 nM. For the same molecule, the “inhibition of IL-1β secretion” value (NLRP3 inflammasome [4]; LPS + Nigericin) was “robustly inhibited IL-1β secretion” and the “increase in cell viability” value (THP-1 cells) was “up to 60%”.
